Measurements taken from US20250282757A1, “ARYL ETHER-SUBSTITUTED HETEROCYCLIC COMPOUNDS AS GLP1R AGONISTS” (MINDRANK AI LTD., priority 2021, published 2025).
Blank lines part the entries; values can stand above or below the compound they belong to.

Tests used:
GLP-1R = GLP-1R (Homo sapiens, UniProt P43220); assay: Agonist activity on GLP-1R, HTRF cAMP detection in stably transfected GLP-1R/HEK293 cells; type: cell-based; settings: for EC50: 30 min incubation; for Max activity: relative to top concentration of reference GLP-1(7-37)
Chain of GLP-1R (P43220 24-463): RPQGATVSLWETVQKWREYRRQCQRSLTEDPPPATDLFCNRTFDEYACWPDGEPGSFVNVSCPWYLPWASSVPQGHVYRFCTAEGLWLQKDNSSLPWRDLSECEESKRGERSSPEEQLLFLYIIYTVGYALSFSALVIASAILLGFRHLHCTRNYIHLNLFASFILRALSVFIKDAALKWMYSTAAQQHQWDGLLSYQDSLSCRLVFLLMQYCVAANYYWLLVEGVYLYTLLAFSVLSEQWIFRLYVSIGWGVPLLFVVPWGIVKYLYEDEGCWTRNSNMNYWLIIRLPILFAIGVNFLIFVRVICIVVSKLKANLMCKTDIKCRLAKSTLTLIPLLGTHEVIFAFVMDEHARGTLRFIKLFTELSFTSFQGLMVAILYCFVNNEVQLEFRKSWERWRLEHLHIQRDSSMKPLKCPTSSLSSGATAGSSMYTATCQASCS

[1] = Pharmacokinetic study in mice; type: in vivo, CD-1 mice; settings: for clearance rate compared with PF-06882961 / exposure compared with PF-06882961: mice; for half-life: read-out: T½ (converted); for Vd: read-out: Vdss
Experimental: The pharmacokinetic properties of some compounds of the present invention were evaluated in mice pharmacokinetic experiments. SPF male CD-1 mice from Beijing Vital River Laboratory Animal Technology Co., Ltd were used with 6 mice in each group. Compounds were dissolved in 10% solutol/90% saline. A single intravenous administration was given at a dose of 1 mg/kg in a volume of 1 mL/kg. A single intragastric administration was given at a dose of 5 mg/kg in a volume of 1 mL/kg. Animals were fasted overnight prior to the administration and resumed feeding 4 hours after administration, ad libitum to water. Blood was collected at 0.0830, 0.25, 0.5, 1, 2, 4, 6, 8 and 24 hours after dosing. About […] of whole blood was collected from the saphenous vein of animals and placed in an EDTA-K2 anticoagulation tube. The samples were centrifuged at 4° C. and 4200 rpm for 5 min, and the plasma was transferred into a centrifuge tube and stored at −80° C. until analysis. For plasma sample analysis, the test compounds and internal standards (Labetalol & tolbutamide & Verapamil & dexamethasone & glyburide & Celecoxib) were extracted from mice plasma by protein precipitation method with acetonitrile, and the extracts were analyzed by LC/MS/MS. The measured plasma concentration-time data of individual animals were analyzed with the non-compartmental model of Phoenix WinNonlin 7.0 (Pharsight, USA) software, and the pharmacokinetic parameters of mice were obtained as follows: maximum (peak) plasma drug concentration Cmax; Peak time Tmax; half-life T1/2 and area under the plasma concentration-time curve extrapolated to infinity AUC0-inf.

[2] = Pharmacokinetic study in monkeys; type: in vivo, cynomolgus monkeys; settings: for half-life: read-out: T½ (converted)
Experimental: The pharmacokinetic properties of compounds of the present invention were evaluated in monkey pharmacokinetic experiments with 3 male Non-naive cynomolgus monkeys per group. Compounds were dissolved in 10% solutol/90% saline. For single intravenous administration, the dose was 1 mg/kg, and the administration volume was 1 mL/kg. For single intragastric administration, the dose was 5 mg/kg, and the administration volume was 1 mL/kg. Animals were fasted overnight with free water before the experiment and resumed feeding 4 hours after administration. Blood was collected at 0.0830, 0.25, 0.5, 1, 2, 4, 6, 8 and 24 hours after dosing. About 0.4 mL of whole blood was collected from the animal's forearm vein and placed in an EDTA-K2 anticoagulant tube. The samples were centrifuged at 4° C. and 4200 rpm for 5 min, and the plasma was transferred to a centrifuge tube and stored at −80° C. until analysis. For plasma sample analysis, the test compounds and internal standards (Labetalol & tolbutamide & Verapamil & dexamethasone & glyburide & Celecoxib) were extracted from monkey plasma by protein precipitation method with acetonitrile, and the extracts were analyzed by LC/MS/MS. Measured plasma concentration-time data in individual animals were analyzed using the non-compartmental model of Phoenix WinNonlin 7.0 (Pharsight, USA) software to obtain the following pharmacokinetic parameters: maximum (peak) plasma drug concentration Cmax; time to peak Tmax; Half-life T1/2 and area under the plasma concentration-time curve extrapolated to infinity AUC0-inf.

cynomolgus monkeys = assay: Intravenous glucose tolerance (IVGTT) experiment in cynomolgus monkey; type: in vivo
Experimental: The compounds were dissolved in 10% Solutol HS15+90% Saline by vortex ultrasound. Vehicle was 10% Solutol HS15+90% Saline.
Male cynomolgus monkeys, 10-15 years old, weighing 6-13 kg. Healthy animals were selected for efficacy studies according to alanine aminotransferase (ALT), aspartate aminotransferase (AST), triglyceride (TG), total cholesterol (TC), high density lipoprotein (HDL), low density lipoprotein (LDL), glycosylated hemoglobin (HbA1c), body weight (BW).
After 1 week of acclimation, the IVGTT baseline before administration was measured, and the animals were grouped according to the insulin and blood glucose results of the IVGTT. The detailed information of treatment was as follows:
IVGTT was started after 2 hours post of compound dosing. Blood were collected-at −15 min, 0 min (before sugar administration), and 2, 5, 7, 10, 20, and 30 min after sugar administration. And the blood glucose level were measured.
Data was analyzed by Graphpad Prism 6 and the statistical method was one-way ANOVA Dunnett's test. Compared with the vehicle group, p<0.05 was considered significant difference. * means p<0.05, ** means p<0.01, *** means p<0.001.

[3] = mouse, plasma, male CD-1 mice, 1 mg/kg iv
[4] = mouse, plasma, male CD-1 mice, 1 mg/kg iv, read-out: AUC0-inf
[5] = mouse, plasma, male CD-1 mice, 5 mg/kg po, read-out: AUC0-inf
[6] = mouse, plasma, male CD-1 mice, 5 mg/kg po, read-out: Cmax
[7] = mouse, plasma, male CD-1 mice, 5 mg/kg po
[8] = cynomolgus monkey, plasma, male cynomolgus monkeys, 1 mg/kg iv
[9] = male cynomolgus monkeys, 5 mg/kg po
[10] = single oral dose of 100 mg/kg, IVGTT 2 hours after dosing
[11] = male cynomolgus monkeys, 1 mg/kg iv

- EC50 (GLP-1R): 0.193 nM
- Max activity (GLP-1R): 129.3%
- F ([1]; male CD-1 mice, 5 mg/kg po): 20.7%
- clearance rate compared with PF-06882961 [1]: lower clearance rates
- exposure compared with PF-06882961 [1]: higher exposure
- clearance [1, 3]: 12 mL/min/kg
- AUC(0-inf) [1, 4]: 1350 ng·h/mL
- half-life [1, 3]: 1 h
- Vd [1, 3]: 1 L/kg
- AUC(0-inf) [1, 5]: 1760 ng·h/mL
- Cmax [1, 6]: 515 ng/mL
- half-life [1, 7]: 3.2 h
- clearance [2, 8]: 7.26 mL/min/kg
- AUC(0-inf) ([2]; cynomolgus monkey, plasma, male cynomolgus monkeys, 1 mg/kg iv, read-out: AUC0-inf): 2380 ng·h/mL
- half-life [2, 8]: 1.34 h
- Vd ([2]; cynomolgus monkey, plasma, male cynomolgus monkeys, 1 mg/kg iv, read-out: Vdss): 0.29 L/kg
- AUC(0-inf) ([2]; cynomolgus monkey, plasma, male cynomolgus monkeys, 5 mg/kg po, read-out: AUC0-inf): 1240 ng·h/mL
- Cmax ([2]; cynomolgus monkey, plasma, male cynomolgus monkeys, 5 mg/kg po, read-out: Cmax): 235 ng/mL
- half-life ([2]; cynomolgus monkey, plasma, male cynomolgus monkeys, 5 mg/kg po): 4.01 h
- F [2, 9]: 10.4%
- clearance rate compared with PF-06882961 ([2]; monkeys): lower clearance rates
- exposure compared with PF-06882961 ([2]; monkeys): higher exposure
- half-life compared with PF-06882961 ([2]; monkeys): greater
Compound: O=C(O)c1ccc2nc(CN3CCC(Oc4cccc(COc5ccc(Cl)cc5F)n4)CC3)n(C[C@@H]3CCO3)c2c1 [Compound 49, (S)-2-((4-((6-((4-chloro-2-fluorophenoxy)methyl)pyridin-2-yl)oxy)piperidin-1-yl)methyl)-1-(oxetan-2-ylmethyl)-1H-benzo[d]imidazole-6-carboxylic acid]
- blood glucose level in IVGTT (cynomolgus monkeys; 60 mg/kg po dose group): significant hypoglycemic effect
- effect on blood glucose compared with PF-06882961 (cynomolgus monkeys; 100 mg/kg po, IVGTT): slightly more effective
- blood glucose level in IVGTT (cynomolgus monkeys; [10]): significantly lower the blood glucose level

- EC50 (GLP-1R): 0.21 nM
- Max activity (GLP-1R): 124.9%
- F ([1]; male CD-1 mice, 5 mg/kg po): 54.4%
- clearance rate compared with PF-06882961 [1]: lower clearance rates
- exposure compared with PF-06882961 [1]: higher exposure
- clearance [1, 3]: 21.7 mL/min/kg
- AUC(0-inf) [1, 4]: 771 ng·h/mL
- half-life [1, 3]: 2.3 h
- Vd [1, 3]: 1.2 L/kg
- AUC(0-inf) [1, 5]: 2100 ng·h/mL
- Cmax [1, 6]: 1640 ng/mL
- half-life [1, 7]: 1 h
Compound: N#Cc1ccc(OCc2cccc(OC3CCN(Cc4nc5c(F)cc(C(=O)O)cc5n4C[C@@H]4CCO4)CC3)n2)c(F)c1 [Compound 56, (S)-2-((4-((6-((4-cyano-2-fluorophenoxy)methyl)pyridin-2-yl)oxy)piperidin-1-yl)methyl)-4-fluoro-1-(oxetan-2-ylmethyl)-1H-benzo[d]imidazole-6-carboxylic acid]

- EC50 (GLP-1R): 0.249 nM
- Max activity (GLP-1R): 109.1%
- F ([1]; male CD-1 mice, 5 mg/kg po): 45.1%
- clearance rate compared with PF-06882961 [1]: lower clearance rates
- exposure compared with PF-06882961 [1]: higher exposure
- clearance [1, 3]: 15 mL/min/kg
- AUC(0-inf) [1, 4]: 1140 ng·h/mL
- half-life [1, 3]: 1 h
- Vd [1, 3]: 1 L/kg
- AUC(0-inf) [1, 5]: 2580 ng·h/mL
- Cmax [1, 6]: 2190 ng/mL
- half-life [1, 7]: 1.4 h
Compound: O=C(O)c1cc(F)c2nc(CN3CCC(Oc4cccc(COc5ccc(Cl)cc5F)n4)CC3)n(C[C@@H]3CCO3)c2c1 [Compound C23, (S)-2-((4-((6-((4-chloro-2-fluorophenoxy)methyl)pyridin-2-yl)oxy)piperidin-1-yl)methyl)-4-fluoro-1-(oxetan-2-ylmethyl)-1H-benzo[d]imidazole-6-carboxylic acid]

- EC50 (GLP-1R): 15.4 nM
- Max activity (GLP-1R): 125.2%
Compound: N#Cc1ccc(COc2cccc(OC3CCN(Cc4nc5ccc(C(=O)O)cc5n4C[C@@H]4CCO4)CC3)c2)c(F)c1 [Compound S5, (S)-2-((4-(3-((4-cyano-2-fluorobenzyl)oxy)phenoxy)piperidin-1-yl)methyl)-1-(oxetan-2-ylmethyl)-1H-benzo[d]imidazole-6-carboxylic acid]

- EC50 (GLP-1R): 2.6 nM
- Max activity (GLP-1R): 114.9%
Compound: N#CCC1(Cn2c(CN3CCC(Oc4cccc(OCc5ccc(C#N)cc5F)c4)CC3)nc3c(F)cc(C(=O)O)cc32)CC1 [Compound S6]

- EC50 (GLP-1R): 0.962 nM
- Max activity (GLP-1R): 129.1%
Compound: N#CCC1(Cn2c(CN3CCC(Oc4cccc(OCc5ccc(C#N)cc5F)n4)CC3)nc3c(F)cc(C(=O)O)cc32)CC1 [Compound S20]

- EC50 (GLP-1R): 731 nM
- Max activity (GLP-1R): 92.7%
Compound: N#Cc1ccc(COc2cccc(COC3CCN(Cc4nc5ccc(C(=O)O)cc5n4C[C@@H]4CCO4)CC3)n2)c(F)c1 [Compound S22, (S)-2-((4-((6-((4-cyano-2-fluorobenzyl)oxy)pyridin-2-yl)methoxy)piperidin-1-yl)methyl)-1-(oxetan-2-ylmethyl)-1H-benzo[d]imidazole-6-carboxylic acid]

- EC50 (GLP-1R): 1.47 nM
- Max activity (GLP-1R): 98.0%
Compound: CCn1cncc1Cn1c(CN2CCC(Oc3cccc(OCc4ccc(C#N)cc4F)c3)CC2)nc2ccc(C(=O)O)cc21 [Compound S23, 2-((4-(3-((4-cyano-2-fluorobenzyl)oxy)phenoxy)piperidin-1-yl)methyl)-1-((1-ethyl-1H-imidazol-5-yl)methyl)-1H-benzo[d]imidazole-6-carboxylic acid]

- EC50 (GLP-1R): 150 nM
- Max activity (GLP-1R): 114.2%
Compound: O=C(O)/C=C/c1ccc2nc(CN3CCC(Oc4ccc(F)c(OCc5ccc(Cl)cc5F)n4)CC3)n(C[C@@H]3CCO3)c2c1 [Compound S36]

- EC50 (GLP-1R): 21.7 nM
- Max activity (GLP-1R): 94.8%
Compound: N#CCC1(Cn2c(CN3CCC(Oc4ccc(F)c(OCc5ccc(Cl)cc5F)n4)CC3)nc3c(F)cc(C(=O)O)cc32)CC1 [Compound S41, 2-((4-((6-((4-chloro-2-fluorobenzyl)oxy)-5-fluoropyridin-2-yl)oxy)piperidin-1-yl)methyl)-1-((1-(cyanomethyl)cyclopropyl)methyl)-4-fluoro-1H-benzo[d]imidazole-6-carboxylic acid]

- AUC(0-inf) ([1]; male CD-1 mice, 1 mg/kg iv): 370 ng·h/mL
- Cl ([1]; male CD-1 mice, 1 mg/kg iv): 45.1 mL/min/kg
- T½ ([1]; male CD-1 mice, 1 mg/kg iv): 0.3 h
- Vdss ([1]; male CD-1 mice, 1 mg/kg iv): 1 L/kg
- AUC(0-inf) ([1]; male CD-1 mice, 5 mg/kg po): 366 ng·h/mL
- Cmax ([1]; male CD-1 mice, 5 mg/kg po): 299 ng/mL
- F ([1]; male CD-1 mice, 5 mg/kg po): 19.8%
- T½ ([1]; male CD-1 mice, 5 mg/kg po): 2.0 h
- AUC(0-inf) [2, 11]: 1167 ng·h/mL
- Cl [2, 11]: 14.4 mL/min/kg
- T½ [2, 11]: 1.1 h
- Vdss [2, 11]: 0.3 L/kg
- AUC(0-inf) [2, 9]: 344 ng·h/mL
- Cmax [2, 9]: 58.8 ng/mL
- F [2, 9]: 5.9%
- T½ [2, 9]: 2.8 h
Compound: N#Cc1ccc(COc2cccc(C3CCN(Cc4nc5ccc(C(=O)O)cc5n4C[C@@H]4CCO4)CC3)n2)c(F)c1 [PF-06882961, reference compound]
- blood glucose level in IVGTT (cynomolgus monkeys; [10]): significantly lower the blood glucose level

Compound: Glucagon-like peptide-1 [GLP-1(7-37), reference compound]
- Max activity (GLP-1R): 98.1%
